According to PubChem BioAssay AID330 (DTP/NCI, 2004):
Values joined by “and” are separate entries in the source; they are usually repeats but may differ in a detail not shown here. Equal values may be shown once. Inconclusive results and toxic doses are left out. Rule for the calls: active = survival T/C of 150% or more; inactive = T/C below 125% in these data.

System: P388 leukemia ip, CD2F1 mice, survival T/C
Test: NCI In Vivo Anticancer Drug Screen. Data for tumor model P388 Leukemia (intraperitoneal) in CD2F1 (CDF1) mice
Conditions: endpoint: median survival time, higher = longer survival
Outline: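 Mice carrying the transplanted tumor received test compound or vehicle. Survival was recorded in each group, and the value is the treated-group measurement divided by that of the vehicle-treated control group.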

[1] = dose: 100.0 mg/kg/injection, schedule: Q04DX002 (ip), vehicle: saline with Tween-80
[2] = dose: 200.0 mg/kg/injection, schedule: Q04DX002 (ip), vehicle: saline with Tween-80
[3] = dose: 50.0 mg/kg/injection, schedule: Q01DX009 (ip), vehicle: Klucel (hydroxypropylcellulose) (HPC)
[4] = dose: 100.0 mg/kg/injection, schedule: Q01DX009 (ip), vehicle: Klucel (hydroxypropylcellulose) (HPC)
[5] = dose: 50.0 mg/kg/injection, schedule: Q01DX009 (ip), vehicle: saline with Tween-80
[6] = dose: 100.0 mg/kg/injection, schedule: Q01DX009 (ip), vehicle: saline with Tween-80
[7] = dose: 12.5 mg/kg/injection, schedule: Q01DX009 (ip), vehicle: Klucel (hydroxypropylcellulose) (HPC)
[8] = dose: 25.0 mg/kg/injection, schedule: Q01DX009 (ip), vehicle: Klucel (hydroxypropylcellulose) (HPC)
[9] = dose: 100.0 mg/kg/injection, schedule: Q04DX003 (ip), vehicle: saline
[10] = dose: 200.0 mg/kg/injection, schedule: Q04DX003 (ip), vehicle: saline
[11] = dose: 400.0 mg/kg/injection, schedule: Q04DX003 (ip), vehicle: saline
[12] = dose: 60.0 mg/kg/injection, schedule: Q01DX005 (ip), vehicle: saline with Tween-80
[13] = dose: 120.0 mg/kg/injection, schedule: Q01DX005 (ip), vehicle: saline with Tween-80
[14] = dose: 25.0 mg/kg/injection, schedule: Q01DX009 (ip), vehicle: saline
[15] = dose: 50.0 mg/kg/injection, schedule: Q01DX009 (ip), vehicle: saline
[16] = dose: 100.0 mg/kg/injection, schedule: Q01DX009 (ip), vehicle: saline
[17] = dose: 200.0 mg/kg/injection, schedule: Q01DX009 (ip), vehicle: saline
[18] = dose: 60.0 mg/kg/injection, schedule: Q01DX005 (ip), vehicle: Klucel (hydroxypropylcellulose) (HPC)
[19] = dose: 120.0 mg/kg/injection, schedule: Q01DX005 (ip), vehicle: Klucel (hydroxypropylcellulose) (HPC)
[20] = dose: 240.0 mg/kg/injection, schedule: Q01DX005 (ip), vehicle: Klucel (hydroxypropylcellulose) (HPC)
[21] = dose: 6.25 mg/kg/injection, schedule: Q01DX009 (ip), vehicle: saline
[22] = dose: 12.5 mg/kg/injection, schedule: Q01DX009 (ip), vehicle: saline

Measured: T/C

CCOc1ccc(N=Nc2c(O)n(-c3ccc(Br)cc3)c(=S)n(-c3ccc(OC)cc3)c2=O)cc1
inactive: [1] 91 % of control | [2] 91 % of control | dose: 400.0 mg/kg/injection, schedule: Q04DX002 (ip), vehicle: saline with Tween-80 94 % of control

CCCCC1NNC(CCCC)NN1 (configuration not stated)
inactive: [3] 104 % of control | [4] 104 % of control

CCC1(O)CC2CN(CCc3c([nH]c4ccccc34)C(C(=O)OC)(c3cc4c(cc3OC)N(C=O)C3C(O)(C(=O)OC)CC5(CC)C=CCN6CCC43C65)C2)C1 (configuration not stated)
active: dose: 1.0 mg/kg/injection, schedule: Q01DX001 (ip), vehicle: saline 155 % of control and 160 % of control | dose: 2.0 mg/kg/injection, schedule: Q01DX001 (ip), vehicle: saline 158 % of control and 160 % of control | dose: 4.0 mg/kg/injection, schedule: Q01DX001 (ip), vehicle: saline 180 % of control and 185 % of control | dose: 8.0 mg/kg/injection, schedule: Q01DX001 (ip), vehicle: saline 205 % of control and 220 % of control | dose: 16.0 mg/kg/injection, schedule: Q01DX001 (ip), vehicle: saline 255 % of control

CCCCCCCCCCCC(=O)OCCN(CCOC(=O)CCCCCCCCCCC)C(=O)c1ccccc1
inactive: [5] 95 % of control | [6] 100 % of control | dose: 200.0 mg/kg/injection, schedule: Q01DX009 (ip), vehicle: saline with Tween-80 93 % of control

CCOC(=O)N/N=C/c1ccc(N(C)CCC#N)cc1
inactive: dose: 6.25 mg/kg/injection, schedule: Q01DX009 (ip), vehicle: Klucel (hydroxypropylcellulose) (HPC) 90 % of control | [7] 100 % of control | [8] 97 % of control | [3] 88 % of control and 89 % of control | dose: 200.0 mg/kg/injection, schedule: Q01DX009 (ip), vehicle: Klucel (hydroxypropylcellulose) (HPC) 90 % of control

Cn1c2nc(-[n+]3ccc4ccccc4c3)nc-2c([O-])n(C)c1=O
inactive: [9] 100 % of control | [10] 99 % of control | [11] 100 % of control

CCCCCCCCOCCS(=O)(=O)O
inactive: [12] 95 % of control | [13] 92 % of control

c1ccc2c(c1)CCc1ccccc1C2NC1=NCCSC1
inactive: [5] 86 % of control | [6] 93 % of control

CCOC(=O)CN(C=O)C(C)c1ccccc1 (configuration not stated)
inactive: [14] 114 % of control | [15] 99 % of control | [16] 98 % of control | [17] 99 % of control

COc1ccc(C(C)c2cc(N=NC(N)=O)c(OC)cc2O)cc1 (configuration not stated)
inactive: dose: 12.5 mg/kg/injection, schedule: Q01DX005 (ip), vehicle: saline with Tween-80 94 % of control | dose: 25.0 mg/kg/injection, schedule: Q01DX005 (ip), vehicle: saline with Tween-80 90 % of control | dose: 50.0 mg/kg/injection, schedule: Q01DX005 (ip), vehicle: saline with Tween-80 90 % of control

Cc1cc2n(n1)C(C)(C)C(=O)Nc1ccc(Cl)cc1-2
inactive: [18] 96 % of control | [19] 96 % of control | [20] 93 % of control

CC(/C=N\Nc1ccc(C(=O)O)cc1)=N/N(C)C
inactive: [9] 101 % of control | [10] 98 % of control | [11] 101 % of control

CC(C)(C)c1cc(C(C)(C)C)c(P(C(O[Si](C)(C)C)=C(c2ccccc2)c2ccccc2)C(O[Si](C)(C)C)=C(c2ccccc2)c2ccccc2)c(C(C)(C)C)c1
inactive: [12] 94 % of control | [13] 99 % of control | dose: 240.0 mg/kg/injection, schedule: Q01DX005 (ip), vehicle: saline with Tween-80 93 % of control

Fc1ccc2[nH]cc(C3CCCN4CCCCC34)c2c1 (configuration not stated)
inactive: dose: 12.5 mg/kg/injection, schedule: Q01DX001 (ip), vehicle: saline with Tween-80 95 % of control | dose: 25.0 mg/kg/injection, schedule: Q01DX001 (ip), vehicle: saline with Tween-80 101 % of control | dose: 50.0 mg/kg/injection, schedule: Q01DX001 (ip), vehicle: saline with Tween-80 102 % of control | dose: 100.0 mg/kg/injection, schedule: Q01DX001 (ip), vehicle: saline with Tween-80 101 % of control

O/N=C/C(Cl)=N\O
inactive: [1] 91 % of control | [2] 90 % of control

COC(=O)CC1(C(=O)OC)C2=C(CCC2)N2CCCC21 (configuration not stated)
inactive: [7] 101 % of control | [8] 103 % of control | [3] 97 % of control | [4] 93 % of control

Cc1ncc2n1-c1ccc(Cl)cc1C(c1ccccc1F)=NC2
inactive: [15] 103 % of control | [16] 112 % of control

Clc1ccc(C2N(Cc3ccccc3)CCC3CCCCN32)cc1Cl (configuration not stated)
inactive: [5] 87 % of control | [6] 91 % of control

O=[N+]([O-])c1nc2ccccc2[nH]1
inactive: dose: 6.25 mg/kg/injection, schedule: Q01DX009 (ip), vehicle: saline with Tween-80 101 % of control | dose: 12.5 mg/kg/injection, schedule: Q01DX009 (ip), vehicle: saline with Tween-80 101 % of control | dose: 25.0 mg/kg/injection, schedule: Q01DX009 (ip), vehicle: saline with Tween-80 111 % of control | [5] 108 % of control

CCC[N+](CCC)=c1ccc2nc3c(C)cc(N(CC)CC)cc3sc-2c1
inactive: dose: 0.78 mg/kg/injection, schedule: Q01DX009 (ip), vehicle: saline 108 % of control | dose: 1.56 mg/kg/injection, schedule: Q01DX009 (ip), vehicle: saline 112 % of control | dose: 3.13 mg/kg/injection, schedule: Q01DX009 (ip), vehicle: saline 113 % of control and 118 % of control | [21] 123 % of control | [22] 115 % of control

O=C(O)/C=C/C(=O)NNc1nc2ccccc2s1
inactive: [18] 97 % of control | [19] 96 % of control | [20] 89 % of control

CSc1nccnn1
inactive: [21] 109 % of control | [22] 115 % of control | [14] 108 % of control and 116 % of control | [15] 118 % of control | [16] 120 % of control

O=CNc1cccnc1C1OCCO1
inactive: dose: 50.0 mg/kg/injection, schedule: Q01DX005 (ip), vehicle: Klucel (hydroxypropylcellulose) (HPC) 98 % of control | dose: 100.0 mg/kg/injection, schedule: Q01DX005 (ip), vehicle: Klucel (hydroxypropylcellulose) (HPC) 102 % of control | dose: 200.0 mg/kg/injection, schedule: Q01DX005 (ip), vehicle: Klucel (hydroxypropylcellulose) (HPC) 102 % of control

C[N+]1(CCC(=O)c2ccccc2)CCOCC1
inactive: [21] 100 % of control | [22] 103 % of control | [14] 100 % of control | [15] 100 % of control and 97 % of control | [17] 96 % of control

CCCCCCCCCCCCCCCC(=O)NCCO
inactive: dose: 33.0 mg/kg/injection, schedule: Q04DX003 (ip), vehicle: saline with Tween-80 91 % of control | dose: 75.0 mg/kg/injection, schedule: Q04DX003 (ip), vehicle: saline with Tween-80 87 % of control

C=C(C)C1CC2(C)C(C)CC(OC(=O)/C(C)=C\C)CC2C(OC(=O)/C(C)=C\C)C1O (configuration not stated)
inactive: [7] 86 % of control | [8] 96 % of control | [3] 96 % of control | [4] 100 % of control

COc1ccc(C2OC3=C(Nc4ccc(Cl)cc4N3)C2=O)c(OC)c1 (configuration not stated)
inactive: dose: 0.94 mg/kg/injection, schedule: Q01DX005 (ip), vehicle: Klucel (hydroxypropylcellulose) (HPC) 99 % of control | dose: 1.88 mg/kg/injection, schedule: Q01DX005 (ip), vehicle: Klucel (hydroxypropylcellulose) (HPC) 91 % of control | dose: 3.75 mg/kg/injection, schedule: Q01DX005 (ip), vehicle: Klucel (hydroxypropylcellulose) (HPC) 95 % of control | dose: 15.0 mg/kg/injection, schedule: Q01DX005 (ip), vehicle: Klucel (hydroxypropylcellulose) (HPC) 91 % of control | dose: 30.0 mg/kg/injection, schedule: Q01DX005 (ip), vehicle: Klucel (hydroxypropylcellulose) (HPC) 92 % of control | [19] 90 % of control and 93 % of control
